Experimental data: patent US20230033285A1, “Protease Inhibitors for Treatment of Coronavirus Infections” (The Scripps Research Institute, priority 2021, published 2023)
Read-outs that look alike come from different tables or passages of the source.

Tested on: SARS-CoV-2
Assay: microbe, parasite or virus in culture
Type: cell-based
Settings: read-out: EC50, μM (Hela)
[1] = Severe acute respiratory syndrome coronavirus 2, HeLa-ACE2 cells infected with SARS-CoV-2, 24 h, immunofluorescence of infected cells
[2] = Severe acute respiratory syndrome coronavirus 2, HeLa-ACE2, 24 h

Row | Structure (SMILES) | EC50 [1] | EC50 [2]
1 | CC(C)(C)NC(=O)C(=O)N1C[C@@H]2CCC[C@@H]2[C@H]1C(=O)N[C@@H](C[C@@H]1CCNC1=O)C(=O)CO [Compound 31, (1S,3aR,6aS)-2-(2-(tert-butylamino)-2-oxoacetyl)-N-((S)-4-hydroxy-3-oxo-1-((S)-2-oxopyrrolidin-3-yl)butan-2-yl)octahydrocyclopenta[c]pyrrole-1-carboxamide] | > 1 µM | 
2 | CC(C)(C)NC(=O)C(=O)N1C[C@@H]2CCC[C@@H]2[C@H]1C(=O)N[C@@H](C[C@@H]1CCCNC1=O)C(=O)CO [Compound 32, (1S,3aR,6aS)-2-(2-(tert-butylamino)-2-oxoacetyl)-N-((S)-4-hydroxy-3-oxo-1-((S)-2-oxopiperidin-3-yl)butan-2-yl)octahydrocyclopenta[c]pyrrole-1-carboxamide] | 0.5 to 1 µM | 
3 | O=C(Nc1ccccc1F)C(=O)N1C[C@@H]2CCC[C@@H]2[C@H]1C(=O)N[C@@H](C[C@@H]1CCCNC1=O)C(=O)CO [Compound 33, (1S,3aR,6aS)-2-(2-((2-fluorophenyl)amino)-2-oxoacetyl)-N-((S)-4-hydroxy-3-oxo-1-((S)-2-oxopiperidin-3-yl)butan-2-yl)octahydrocyclopenta[c]pyrrole-1-carboxamide] | 0.05 to 0.2 µM | 
4 | CC(C)C[C@H](NC(=O)C(=O)Nc1ccccc1F)C(=O)N[C@@H](C[C@@H]1CCCCNC1=O)C(=O)CO [Compound 34, N^1-(2-fluorophenyl)-N^2-((S)-1-(((S)-4-hydroxy-3-oxo-1-((S)-2-oxoazepan-3-yl)butan-2-yl)amino)-4-methyl-1-oxopentan-2-yl)oxalamide] | > 1 µM | 
5 | COc1cccc2[nH]c(C(=O)N[C@@H](CC(C)C)C(=O)N[C@H](C=O)C[C@@H]3CCNC3=O)cc12 [Compound 35, 4-methoxy-N-((S)-4-methyl-1-oxo-1-(((S)-1-oxo-3-((S)-2-oxopyrrolidin-3-yl)propan-2-yl)amino)pentan-2-yl)-1H-indole-2-carboxamide] | > 1 µM | 
6 | CC1(C)[C@@H]2[C@@H](C(=O)N[C@H](C=O)C[C@@H]3CCNC3=O)N(C(=O)COc3ccc(OC(F)(F)F)cc3)C[C@@H]21 [Compound 36, (1R,2S,5S)-6,6-dimethyl-N-((S)-1-oxo-3-((S)-2-oxopyrrolidin-3-yl)propan-2-yl)-3-(2-(4-(trifluoromethoxy)phenoxy)acetyl)-3-azabicyclo[3.1.0]hexane-2-carboxamide] |  | 0.2 to 0.5 µM
7 | CC(C)C[C@H](NC(=O)C(=O)Nc1ccccc1)C(=O)N[C@H](C=O)C[C@@H]1CCNC1=O [Compound 37, N^1-((S)-4-methyl-1-oxo-1-(((S)-1-oxo-3-((S)-2-oxopyrrolidin-3-yl)propan-2-yl)amino)pentan-2-yl)-N^2-phenyloxalamide] | > 1 µM | 
8 | Cc1ccccc1NC(=O)C(=O)N[C@@H](CC(C)C)C(=O)N[C@H](C=O)C[C@@H]1CCNC1=O [Compound 38, N^1-((S)-4-methyl-1-oxo-1-(((S)-1-oxo-3-((S)-2-oxopyrrolidin-3-yl)propan-2-yl)amino)pentan-2-yl)-N^2-(o-tolyl)oxalamide] | 0.05 to 0.2 µM | 
9 | CC(C)C[C@H](NC(=O)C(=O)Nc1ccccc1F)C(=O)N[C@H](C=O)C[C@@H]1CCNC1=O [Compound 39, N^1-(2-fluorophenyl)-N^2-((S)-4-methyl-1-oxo-1-(((S)-1-oxo-3-((S)-2-oxopyrrolidin-3-yl)propan-2-yl)amino)pentan-2-yl)oxalamide] | 0.05 to 0.2 µM | 
10 | O=C[C@H](C[C@@H]1CCNC1=O)NC(=O)[C@H](CC1CCCCC1)NC(=O)C(=O)Nc1ccccc1F [Compound 40, N^1-((S)-3-cyclohexyl-1-oxo-1-(((S)-1-oxo-3-((S)-2-oxopyrrolidin-3-yl)propan-2-yl)amino)propan-2-yl)-N^2-(2-fluorophenyl)oxalamide] | 0.05 to 0.2 µM | 
11 | CC(C)C[C@H](NC(=O)C(=O)Nc1ccccc1F)C(=O)N[C@H](C=O)C[C@@H]1CCCNC1=O [Compound 41, N^1-(2-fluorophenyl)-N^2-((S)-4-methyl-1-oxo-1-(((S)-1-oxo-3-((S)-2-oxopiperidin-3-yl)propan-2-yl)amino)pentan-2-yl)oxalamide] | 0.05 to 0.2 µM | 
12 | CC(C)C[C@H](NC(=O)C(=O)NC1CCCCC1)C(=O)N[C@H](C=O)C[C@@H]1CCNC1=O [Compound 42, N^1-cyclohexyl-N^2-((S)-4-methyl-1-oxo-1-(((S)-1-oxo-3-((S)-2-oxopyrrolidin-3-yl)propan-2-yl)amino)pentan-2-yl)oxalamide] | 0.5 to 1 µM | 
13 | CC(C)C[C@H](NC(=O)C(=O)NC1(C)CC1)C(=O)N[C@H](C=O)C[C@@H]1CCNC1=O [Compound 43, N^1-((S)-4-methyl-1-oxo-1-(((S)-1-oxo-3-((S)-2-oxopyrrolidin-3-yl)propan-2-yl)amino)pentan-2-yl)-N^2-(1-methylcyclopropyl)oxalamide] | > 1 µM | 
14 | O=C[C@H](C[C@@H]1CCNC1=O)NC(=O)[C@@H]1[C@H]2CCC[C@H]2CN1C(=O)C(=O)Nc1ccccc1F [Compound 44, (1S,3aR,6aS)-2-(2-((2-fluorophenyl)amino)-2-oxoacetyl)-N-((S)-1-oxo-3-((S)-2-oxopyrrolidin-3-yl)propan-2-yl)octahydrocyclopenta[c]pyrrole-1-carboxamide] | > 1 µM | 
15 | O=C[C@H](C[C@@H]1CCCNC1=O)NC(=O)[C@@H]1[C@H]2CCC[C@H]2CN1C(=O)COc1ccc(Cl)cc1Cl [Compound 45, (1S,3aR,6aS)-2-(2-(2,4-dichlorophenoxy)acetyl)-N-((S)-1-oxo-3-((S)-2-oxopiperidin-3-yl)propan-2-yl)octahydrocyclopenta[c]pyrrole-1-carboxamide] | 0.05 to 0.2 µM | 
16 | CC(C)(C)NC(=O)C(=O)N1C[C@H]2[C@@H]([C@H]1C(=O)N[C@H](C=O)C[C@@H]1CCCNC1=O)C2(C)C [Compound 46, (1R,2S,5S)-3-(2-(tert-butylamino)-2-oxoacetyl)-6,6-dimethyl-N-((S)-1-oxo-3-((S)-2-oxopiperidin-3-yl)propan-2-yl)-3-azabicyclo[3.1.0]hexane-2-carboxamide] | > 1 µM | 
17 | CC(C)(NC(=O)C(=O)N1C[C@@H]2CCC[C@@H]2[C@H]1C(=O)N[C@H](C=O)C[C@@H]1CCCNC1=O)C(F)(F)F [Compound 47, (1S,3aR,6aS)-2-(2-oxo-2-((1,1,1-trifluoro-2-methylpropan-2-yl)amino)acetyl)-N-((S)-1-oxo-3-((S)-2-oxopiperidin-3-yl)propan-2-yl)octahydrocyclopenta[c]pyrrole-1-carboxamide] | 0.5 to 1 µM | 
18 | CC1(C)[C@@H]2[C@@H](C(=O)N[C@H](C=O)C[C@@H]3CCCNC3=O)N(C(=O)C(=O)NC3CCCCC3)C[C@@H]21 [Compound 48, (1R,2S,5S)-3-(2-(cyclohexylamino)-2-oxoacetyl)-6,6-dimethyl-N-((S)-1-oxo-3-((S)-2-oxopiperidin-3-yl)propan-2-yl)-3-azabicyclo[3.1.0]hexane-2-carboxamide] | 0.5 to 1 µM | 
19 | CC(C)C[C@H](NC(=O)C(=O)Nc1ccccc1F)C(=O)N[C@H](C#N)C[C@@H]1CCNC1=O [Compound 58] | 0.5 to 1 µM | 
20 | CC1(C)[C@@H]2[C@@H](C(=O)N[C@H](C#N)C[C@@H]3CCNC3=O)N(C(=O)C(=O)Nc3ccccc3F)C[C@@H]21 [Compound 59, (1R,2S,5S)-N-((S)-1-cyano-2-((S)-2-oxopyrrolidin-3-yl)ethyl)-3-(2-((2-fluorophenyl)amino)-2-oxoacetyl)-6,6-dimethyl-3-azabicyclo[3.1.0]hexane-2-carboxamide] | > 1 µM | 
21 | N#C[C@H](C[C@@H]1CCCNC1=O)NC(=O)[C@@H]1[C@H]2CCC[C@H]2CN1C(=O)C(=O)Nc1ccccc1F [Compound 60, (1S,3aR,6aS)-N-((S)-1-cyano-2-((S)-2-oxopiperidin-3-yl)ethyl)-2-(2-((2-fluorophenyl)amino)-2-oxoacetyl)octahydrocyclopenta[c] pyrrole-1-carboxamide] | 0.5 to 1 µM | 
22 | N#C[C@H](C[C@@H]1CCCNC1=O)NC(=O)[C@@H]1[C@H]2CCC[C@H]2CN1C(=O)COc1ccc(Cl)cc1Cl [Compound 61, (1S,3aR,6aS)-N-((S)-1-cyano-2-((S)-2-oxopiperidin-3-yl)ethyl)-2-(2-(2,4-dichlorophenoxy)acetyl)octahydrocyclo-penta[c]pyrrole-1-carboxamide] | 0.5 to 1 µM | 
23 | N#C[C@H](C[C@@H]1CCNC1=O)NC(=O)[C@@H]1[C@H]2CCC[C@H]2CN1C(=O)C(=O)Nc1ccccc1F [Compound 62, (1S,3aR,6aS)-N-((S)-1-cyano-2-((S)-2-oxopyrrolidin-3-yl)ethyl)-2-(2-((2-fluorophenyl)amino)-2-oxoacetyl)octahydrocyclopenta[c] pyrrole-1-carboxamide] | > 1 µM | 
24 | CC(C)(C)[C@H](NC(=O)C(F)(F)F)C(=O)N1C[C@H]2[C@@H]([C@H]1C(=O)N[C@H](C#N)C[C@@H]1CCCNC1=O)C2(C)C [Compound 63, (1R,2S,5S)-N-((S)-1-cyano-2-((S)-2-oxopiperidin-3-yl)ethyl)-3-((S)-3,3-dimethyl-2-(2,2,2-trifluoroacetamido)butanoyl)-6,6-dimethyl-3-azabicyclo[3.1.0]hexane-2-carboxamide] |  | < 0.05 µM
25 | N#C[C@H](C[C@@H]1CCNC1=O)NC(=O)[C@@H]1CC2(CC2)CN1C(=O)C(=O)Nc1ccccc1F [Compound 64, (S)-N-((S)-1-cyano-2-((S)-2-oxopyrrolidin-3-yl)ethyl)-5-(2-((2-fluorophenyl)amino)-2-oxoacetyl)-5-azaspiro[2.4]heptane-6-carboxamide] | > 1 µM | 
26 | CC1(C)[C@@H]2[C@@H](C(=O)N[C@H](C#N)C[C@@H]3CCNC3=O)N(C(=O)C(=O)NC3(C(F)(F)F)CC3)C[C@@H]21 [Compound 65, (1R,2S,5S)-N-((S)-1-cyano-2-((S)-2-oxopyrrolidin-3-yl)ethyl)-6,6-dimethyl-3-(2-oxo-2-((1-(trifluoromethyl)cyclopropyl)amino)acetyl)-3-azabicyclo[3.1.0]hexane-2-carboxamide] | > 1 µM | 
